These results are taken from patent US20240181068A1, “SELECTIVE NEUTRAL PH INHIBITOR OF CATHEPSIN B” (The Regents of the University of California, priority 2021, published 2024).

The IC50 is the concentration needed to halve the response being measured. A low value points to greater potency in that assay. What is called inhibition is the drop in the measured response relative to a control, in per cent. A lower inhibition goes with little suppression.

Bounds are passed on as bounds.

One data set deals with T1, cathepsin C (Homo sapiens, UniProt P53634).
T1 construct: purchased R&D Systems 1071-CY-010
T1 sequence (P53634 25-134 limits assumed): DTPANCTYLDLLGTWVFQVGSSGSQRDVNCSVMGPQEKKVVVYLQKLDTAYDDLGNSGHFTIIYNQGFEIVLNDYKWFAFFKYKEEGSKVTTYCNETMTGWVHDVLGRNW
T1 sequence (P53634 231-394 limits assumed): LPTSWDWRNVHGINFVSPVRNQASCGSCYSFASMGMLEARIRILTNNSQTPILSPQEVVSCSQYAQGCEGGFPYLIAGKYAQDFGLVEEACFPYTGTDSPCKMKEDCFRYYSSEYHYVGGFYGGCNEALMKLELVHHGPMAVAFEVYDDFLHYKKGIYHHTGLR
T1 sequence (P53634 395-463 limits assumed): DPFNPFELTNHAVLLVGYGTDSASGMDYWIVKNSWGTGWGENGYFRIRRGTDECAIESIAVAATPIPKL
Put plainly: Specificity of inhibitors: cathepsin C (Gly-Arg-AMC substrate). The class given is biochemical. Here is the method:
(§1) Specificity of inhibitors for other cysteine cathepsin proteases. The effects of Z-Arg-Lys-AOMK and Z-Glu-Lys-AOMK on cathepsin V, L, K, S, X, H and C activities were assessed. IC50 values were calculated at pH 4.6 and pH 7.2 conditions, consisting of 40 mM citrate phosphate, 1 mM EDTA, 100 mM NaCl, and 5 mM DTT. The inhibitor concentrations ranged from 16.38 μM to 256 nM with 2-fold serial dilutions. […] Cathepsin V (0.04 ng/μL), cathepsin L (0.03 ng/μL), cathepsin K (0.10 ng/μL), cathepsin S (0.20 ng/uL) were assayed with 40 μM Z-Phe-Arg-AMC. Cathepsin X (0.20 ng/uL), cathepsin C (0.51 ng/uL) and cathepsin H (0.1 ng/μL) were assayed with 40 μM of MCA-Arg-Pro-Pro-Gly-Phe-Ser-Ala-Phe-Lys(Dnp)OH (SEQ ID NO: 2), Gly-Arg-AMC, and Arg-AMC, respectively. Activation of pro-cathepsin H to cathepsin H was conducted by incubation of cathepsin H (4.4 ng/μL) with cathepsin L (1.1 ng/μL) at RT for 2 hrs in activation buffer (20 mM citrate phosphate pH 6.0, 100 mM NaCl, and 5 mM DTT). Cathepsin C (13.78 ng/μL) was activated by incubation with cathepsin L (3.4 ng/μL) at RT for one hr in activation buffer (20 mM citrate phosphate, pH 6.0, 100 mM NaCl, 5 mM DTT). […] For all assays containing peptide-AMC substrates the fluorescent microplate reader settings were the same as outlined above for cathepsin B. For the cathepsin X assay, the plate reader was set to excitation 320 nm, emission 400 nm, gain 105, top optics and read height 1 mm. To convert RFU/s to picomol/min, 10 μM to 0.005 μM (2-fold serial dilution) of MCA-Arg-Pro-Pro-Gly-Phe-Ser-Ala-Phe-Lys(Dnp)OH (SEQ ID NO: 2) was fully hydrolyzed with excess cathepsin X and a standard curve was generated using the total fluorescence values calculated at each concentration.

A further data set has as its target T2, cathepsin L (Homo sapiens, UniProt P07711).
T2 construct: purchased R&D Systems 952-CY-010
Put plainly: Specificity of inhibitors: cathepsin L (Z-Phe-Arg-AMC substrate). The format is biochemical. Here is the method:
as §1

The target of a further data set is cathepsin X (Homo sapiens, UniProt Q9UBR2). Put plainly: Specificity of inhibitors: cathepsin X (MCA peptide substrate). The format is biochemical. On the procedure:
as §1

The target in data set [1] is T3, cathepsin B in SHSY5Y human neuroblastoma cell homogenate (Homo sapiens, UniProt P07858).
T3 construct: endogenous in cells; host or cells: SH-SY5Y human neuroblastoma cells
The data set can be described thus: Cathepsin B activity in neuroblastoma cell homogenates in presence of inhibitors. The class given is biochemical. To be noted: inhibitor 1 μM, Z-Arg-Arg-AMC substrate, pH 5.5. On the procedure: (§2) Cathepsin B in human neuroblastoma cells treated with inhibitors. Neuroblastoma cells (human SHSY5Y) were grown in media consisting of 50% MEMalpha, 50% F12-K, 10% heat-inactivated FBS at 37° C. in an atmosphere of 95% air and 5% CO2. Firstly, cell homogenates were prepared by collection of cells in 0.32 M sucrose and freeze-thawing. Secondly, cells were incubated with Z-Arg-Lys-AOMK or CA-074Me for 6 hours at 37° C., and washed 3 times in phosphate-buffered saline and homogenates were prepared in 0.32 M sucrose with freeze-thawing. CA-074Me is a methyl ester form of the active CA-074 selective inhibitor of cathepsin B (70); CA-074Me penetrates the cell and is converted by intracellular esterases to CA-074.
(§3) Cathepsin B activity in the homogenates were monitored with Z-Arg-Arg-AMC substrate (60 μM) with buffer conditions of 40 mM citrate-phosphate, pH 5.5, 5 mM DTT, 1 mM EDTA, 100 mM NaCl, and 1.2% DMSO, followed by incubation at 37° C. for 30 minutes and reading of AMC fluorescence. CA-074-senstive activity was monitored to indicate cathepsin B activity, since CA-074 is a selective inhibitor of this enzyme (70). Protein content was measured in homogenates with the DC protein assay kit. Cathepsin B specific activity was calculated as nmol AMC/μg/min, and reported as the mean±SD (with analyses for statistical significance, p<0.05 by student's t-test).

Data set [2] addresses T4, cathepsin B in human neuroblastoma cells (SHSY5Y) (Homo sapiens, UniProt P07858).
T4 construct: endogenous in cells; host or cells: SH-SY5Y human neuroblastoma cells
The data set can be described thus: Neuroblastoma cells incubated with inhibitors, then cathepsin B assay. The format is cell-based. Here is the method:
as §2, §3

Sequence of cathepsin X (Q9UBR2 62-303): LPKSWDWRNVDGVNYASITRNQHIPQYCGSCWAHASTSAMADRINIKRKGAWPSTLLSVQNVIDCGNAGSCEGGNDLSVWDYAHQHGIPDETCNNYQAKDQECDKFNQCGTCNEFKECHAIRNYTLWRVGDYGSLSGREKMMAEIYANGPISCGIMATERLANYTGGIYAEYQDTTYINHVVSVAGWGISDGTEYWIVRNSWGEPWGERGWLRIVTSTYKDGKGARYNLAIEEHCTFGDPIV
T2 sequence (P07711 114-333): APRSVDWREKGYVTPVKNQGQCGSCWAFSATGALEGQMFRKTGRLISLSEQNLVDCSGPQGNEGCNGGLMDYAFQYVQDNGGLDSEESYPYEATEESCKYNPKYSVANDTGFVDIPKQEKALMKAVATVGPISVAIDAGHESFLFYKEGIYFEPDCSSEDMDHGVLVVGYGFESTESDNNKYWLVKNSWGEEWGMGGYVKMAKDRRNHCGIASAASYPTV

Take `Cc1cccc(C)c1C(=O)OCC(=O)C(CCCCN)NC(=O)C(CCCNC(=N)N)NC(=O)OCc1ccccc1` (stereo not drawn) [Z-Arg-Lys-AOMK]: the IC50 against cathepsin C (cathepsin C, pH 4.6) is greater than 16 µM; against cathepsin C (cathepsin C, pH 7.2), 0.85 µM; against cathepsin L (cathepsin L, pH 4.6) it was greater than 16 µM; at cathepsin X (cathepsin X, pH 4.6) it was greater than 16 µM. Also, the inhibition at 16 µM at cathepsin C (cathepsin C, pH 4.6, 16,000 nM inhibitor) amounted to 6%; on cathepsin L (cathepsin L, pH 4.6, 16,000 nM inhibitor) it was 32%; against cathepsin X (cathepsin X, pH 4.6, 16,000 nM inhibitor), 21%. Further, at cathepsin C (pH 4.6, inhibitor at 16 μM), the “inhibition of cathepsin C” value is “minimal inhibition”. The “fold more potent for cathepsin B than cathepsin C” value on cathepsin C (pH 7.2, from IC50) stood at 43 fold. For the same compound, the “inhibition of cathepsin L” value on cathepsin L (pH 4.6, inhibitor at 16 μM) is listed as “minimal inhibition”. The “inhibition of cathepsin X” value against cathepsin X (pH 4.6, inhibitor at 16 μM) is reported as “minimal inhibition”. In addition, in data set [1], the “inhibition of proteolytic (cathepsin B) activity in cell lysate” value is recorded as “completely inhibited”. Also, in data set [2] (cells incubated with 50 μM inhibitor for 6 hrs, washed, homogenate assayed with Z-Arg-Arg-AMC), the “inhibition of cellular cathepsin B activity” value was “completely inhibited”. For the same compound, the cell permeability entry in data set [2] (neuroblastoma cells, 50 μM, 6 hrs) is “cell permeable”.
